Assays:
[1] = test system: UMSCC47 HPV(+) head and neck cancer cells; experiment: Exosome secretion by UMSCC47 cells; type: cell-based; conditions: for exosome production by UMSCC47 cells: total exosomal protein normalized to 10^6 cells
Protocol: All cell lines were grown at 37° C. in the atmosphere of 5% CO2 in air. Cultures were supplemented with fetal bovine serum (FBS) depleted of exosomes by ultracentrifugation at 100,000×g for 3 h. Cells were cultured in 150 cm^2 cell culture flasks using 25 ml of culture medium. Media used for cell cultures are described in Table 1. Seeding protocol was optimized for each cell type as recently described in Ludwig N., et al., (Exp Cell Res. 2019; 378(2):149-57). After seeding, cells were allowed to attach to the flask for 6 h, were then treated with indicated reagents and incubated for 48 or 72 h as indicated.
Exosome isolation by mini-SEC: Processing of supernatants and exosome isolation by mini-SEC was performed as previously described in Ludwig et al. Briefly, cell culture supernatants were centrifuged at room temperature (RT) for 10 min at 2000×g, were transferred to new tubes for centrifugation at 10,000×g at 4° C. for 30 min and filtrated using a 0.22 μm bacterial filter. Afterwards, aliquots of supernatants were concentrated by using Vivacell 100 concentrators at 2000×g. 1 mL of concentrated supernatant was loaded on a 10 cm-long Sepharose 2-B column and individual 1 mL fractions were collected. Fraction #4 containing non-aggregated exosomes was used in subsequent assays. The established isolation technique fulfils the criteria of the MISEV2018 guidelines and therefore the term ‘exosomes’ is used.
Protein concentration: Protein concentrations were determined by using a BCA protein assay (Pierce Biotechnology, Rockford, Ill., USA) according to the manufacturer's instructions.
Tunable resistive pulse sensing (TRPS): Size distribution and concentrations of the particles in isolated exosome fractions were analyzed using tunable-resistive pulse sensing (TRPS) by qNano (Izon) as described in Ludwig N, et al., Mol Cancer Res. 2018; 16(11):1798-808.

[2] = test system: Preglomerular vascular smooth muscle cells (PGVSMCs); experiment: Exosome production by PGVSMCs from CNPase +/+ and −/− rats; type: cell-based, rat; conditions: 8-Br-2′,3′-cAMP 0.3 μM; IAA/DNP 5 μM
From the text: Isolation of rat CNPASE +/+ and −/− PGVSMCs: 2′,3′-Cyclic nucleotide 3′-phosphodiesterase (CNPase) knockout rats used in this example were generated by the MCW Gene Editing Rat Resource Program. This strain was produced by injecting a CRISPR targeting the sequence […] into rat embryos. The resulting mutation was a 7 base pair deletion in exon 2. Animals were genotyped by PCR. Preglomerular vascular smooth muscle cells (PGVSMCs) were isolated from kidneys of wild type (CNPase +/+) and knockout (CNPase −/−) rats using a previously described method. Cells were cultured at 37° C. in the atmosphere of 5% CO2 in air using DMEM supplemented with exosome-depleted FBS. Exosome isolation was performed as described above.

Row | SMILES | exosome production by UMSCC47 cells [1] | stimulation of exosome production, CNPase −/− versus CNPase +/+ PGVSMCs [2] | effect on stimulation of exosome production by IAA/DNP ([1]; UMSCC47, in combination with IAA/DNP)
1 | Nc1ncnc2c1nc(Br)n2C1OC(CO)C2OP(=O)(O)OC21 (stereo not drawn) [8-Br-2′,3′-cAMP] | concentration-dependent increase in exosome secretion | greater in CNPase −/− compared with CNPase +/+ cells | –
2 | Nc1ncnc2c1ncn2[C@@H]1O[C@H](CO)[C@@H](O)[C@H]1OP(=O)(O)O [2′-AMP] | did not affect exosome secretion | – | –
3 | CCCn1c(=O)c2[nH]c(-c3ccc(OCC(=O)Nc4ccc(C#N)cc4)cc3)nc2n(CCC)c1=O [MRS 1754] | – | – | significantly decreased
4 | Nc1ncnc2c1ncn2[C@@H]1O[C@H](CO)[C@H]2OP(=O)(O)O[C@H]21 [2′,3′-cAMP] | stimulated exosome production, but only at high concentrations | – | –
5 | Nc1ncnc2c1ncn2[C@@H]1O[C@H](CO)[C@@H](OP(=O)(O)O)[C@H]1O [3′-AMP] | significantly stimulated exosome release | – | –
